From article PMC12993615 (The journal of pain, 2024)

Experiments:
Type in all cases: in vivo, male Sprague Dawley rats
[1] = test system: oxaliplatin-induced mechanical allodynia; experiment: 7-day treatment of established OIPN, paw withdrawal threshold; settings: pregabalin 30 mg/kg PO on Days 7 and 14, P < .01
Protocol: (§1) Male Sprague Dawley rats (150–210 g) were housed in groups of 4 in intra-ventilated Perspex home cages. Humidity, temperature (21 ± 1 °C), and lighting (light-dark cycle of 12:12 hours) were controlled and maintained in the home cages, with food and water available ad libitum. Rats acclimatised to the home cages for at least 1 week. All experiments were carried out according to the Animals (Scientific Procedures) Act, 1986 (U.K. Government Home Office). The study was performed under the Home Office project licence number PP0847012. OIPN was established with a single dose of OXA (10 mg/kg, IP).
Body weight was monitored throughout the study, and terminal plasma and whole brain samples were taken for bioanalysis.
(§2) Tactile allodynia (primary outcome measure) was assessed using paw withdrawal threshold (PWT), a measure of pain sensitivity. PWT was evaluated using calibrated von-Frey monofilaments (Touch-Test Sensory Evaluator; Scientific Marketing Associates) applied to the plantar surface of the left hind paw. PWT was determined by increasing and decreasing stimulus intensity and estimated using Dixon’s up-down method.[38],[39]
(§3) To acquire baseline readings, pain behaviour was assessed on 3 consecutive days (Days −3, −2, −1). […] NPB expressed as a percentage change from HBL was calculated as follows (HBL-NPB)/HBL*100. […]

[2] = test system: oxaliplatin-induced mechanical allodynia; experiment: Prevention of OIPN, paw withdrawal threshold; settings: pregabalin 30 mg/kg PO QD
Protocol: as §1
(§4) Pain measurements were made on Days 5/6 (when neuropathy has normally developed) and at the end of the study. […] Terminal plasma samples were taken for bioanalysis and proteomics (Somalogic). Brain regions involved in pain processing, that is, prefrontal cortex (PFC), periaqueductal grey (PAG), whole spinal cords (SC), and L4-L6 dorsal root ganglia, were collected for lipidomic and genomic (Genewiz, China) analyses.
as §2
To acquire baseline readings, pain behaviour was assessed on 3 consecutive days (Days −3, −2, −1). The mean of Day −2 and Day −1 was considered the healthy baseline (HBL) prior to OIPN induction. On Days 5 and 6 after OXA injection, thresholds were reassessed. The mean of Days 5 and 6 was considered the neuropathic baseline (NPB). Animals were then ranked and randomised (based on a Latin square design) to treatment groups according to the percentage change of the mean thresholds observed in the NPB compared to the HBL. NPB expressed as a percentage change from HBL was calculated as follows (HBL-NPB)/HBL*100. All behavioural assessment was done by an experimenter blinded to the identity of the treatment. Separate people were responsible for dosing and assessment/data analysis.

[3] = test system: oxaliplatin-induced thermal hyperalgesia; experiment: Prevention of OIPN, cold plate latency; settings: pregabalin 30 mg/kg PO QD, P < .001
Protocol: as §1
Pain measurements were made on Days 5/6 (when neuropathy has normally developed) and at the end of the study. […] Terminal plasma samples were taken for bioanalysis and proteomics (Somalogic). […]
Thermal hyperalgesia was assessed using a cold plate (Bioseb, France) set at a fixed temperature of 15 °C. Latency to the first escape behaviour from the plate was measured indicating discomfort to the thermal stimulation. […]
as §3

[4] = Prevention of OIPN, body weight; settings: pregabalin 30 mg/kg PO QD
Text: as §4

For `CC(C)C[C@H](CN)CC(=O)O` [pregabalin, Pregabalin, reference compound], the “PWT scores versus vehicle” value [1] was “significantly higher PWT scores than vehicle”, the “PWT on Day 14 compared to HBL” value [2] was “neither the ART26.12 nor the pregabalin groups showed significant allodynia” and the “PWT on Day 5/6 compared to HBL” value ([2]; P < .05) was “significantly lower PWTs”. The “cold plate latencies on Day 14 versus vehicle” value [3] was “significantly higher cold plate latencies than the vehicle group” and the “body weight in first 4 days post-administration of OXA” value [4] was “weight loss”.
